Test results as given in US20250034182A1, “PHOSPHOLIPID COMPOUNDS AND METHODS OF MAKING AND USING THE SAME” (priority 2021, published 2025).

How the values were obtained:
Format in all cases: cell-based
[1] = tested on: CAN97-83-GFP1 (A2a) hMPV in H1-HeLa cells; experiment: hMPV H1-Hela EC50, anti-nucleoprotein ELISA (Example X); conditions: human metapneumovirus, 96 h, read-out: hMPV H1-Hela EC50 (nM) (per Ex. X)
Procedure: The human metapneumoavirus (hMPV) anti-viral assay is an anti-nucleoprotein ELISA performed in infected H1-HeLa cells. H1-HeLa cells were maintained in Dulbecco's Modified Eagle's Medium with high glucose (Gibco, Cat #: 11995073) supplemented with 10% FBS (HyClone, Cat #: SH303396.03), 100 units/mL penicillin and 100 μg/mL streptomycin (Gibco, Cat #: 15140122). One day before infection, H1-HeLa cells were seeded into 96-well plates (Corning, Cat. #: 3903) at 0.1 mL/well at 1.5×10^5 cells/mL in Opti-MEM (Gibco, Cat #: 31985070) supplemented with 2% FBS, and were incubated at 37° C. in a 100% humid atmosphere containing 5% (v/v) CO2 overnight. On the next day, CAN97-83-GFP1 (A2a) hMPV was diluted in Opti-MEM medium containing 200 μg/mL CaCl2) and 2 μg/mL TPCK treated trypsin and distributed to the 96-well plates at 0.1 mL/well for an MOI=0.1. Test compounds were distributed to each well using a HP D300e digital dispenser with a final volume of 200 µL/well. After the plates were centrifuged at 700 g for one hour at room temperature, they were maintained in a humidified chamber at 37-C with 5% (v/v) CO2 for 96 hours. After the incubation, the medium was removed, and the plates were fixed with 0.1 mL/well 1% formaldehyde for 15 min at room temperature. The fixative was removed, the plates were air dried for 30-60 minutes, and then permeabilized with 0.1 mL/well 0.5% Triton X-100 in PBS for five minutes at room temperature. Following permeabilization, the plates were washed once with 0.1 mL/well blocking buffer consisting of 10% FBS (HyClone, Cat #: SH303396.03), 5% dry milk (AmericanBio, Cat #: AB10109-01000), and 0.1% Tween 20 (EMD Millipore, Cat #655204) in PBS. The plates were blocked with 0.1 mL/well blocking buffer for 60 minutes at 37° C. afterward. The blocking buffer was removed and 0.05 mL/well human metapneumovirus nucleocapsid antibody (Sigma, Cat #MAB80121) diluted 1:500 in Blocking buffer was added and incubated for two hours at 37-C. The plates were then washed with 0.2 mL/well 0.1% Tween 20/PBS five times, followed by addition of 0.05 mL/well of horseradish peroxidase (HRP) conjugated goat anti-mouse IgG antibody (Fisher Scientific, Cat #501077607) at 1:2000 dilution in the blocking buffer. After one-hour incubation at 37-C, plates were washed five times with 0.2 mL/well 0.1% tween 20 in PBS. The HRP signals were developed by adding 0.1 mL/well of TMB reagent (Thermo Scientific, Cat #: ENN301) and incubating at room until the positive control was apparent. At that point, the reaction was stopped by adding 0.1 mL/well TMB stop solution (SeraCare, Cat #: 5150-0021). The absorbance was measured at 450 nm with an EnVision plate reader. The relative absorbance was calculated by normalizing the absorbance of the compound-treated groups to that of the DMSO-treated groups (set as 100%). EC50 values were calculated using a nonlinear four parameter variable slope regression model.

[2] = tested on: Recombinant Respiratory Syncytial virus strain A2 containing the firefly luciferase reporter (RSV-Fluc) in NHBE cells; experiment: RSV NHBE FLuc EC50 (Example I); conditions: human respiratory syncytial virus, 72 h, read-out: RSV NHBE FLuc EC50 (nM) (per Ex. I)
Procedure, shortened: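 NHBE primary cells (passage 2-4) treated with threefold compound dilutions and infected with RSV A2 firefly-luciferase reporter virus at MOI 0.1; 3 days at 37° C, 5% CO2. ONE-Glo luminescence normalized to uninfected and infected DMSO controls; EC50 from non-linear regression, duplicates with two technical repeats.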

in vitro = conditions: human
Procedure: H1-HeLa cell viability was measured using the CellTiter-Glo® Luminescent Cell Viability Assay kit (Promega, Cat #G7573) according to the manufacturer's protocol. H1-HeLa cells were maintained in Dulbecco's Modified Eagle's Medium with high glucose (Gibco, Cat #: 11995073) supplemented with 10% FBS (HyClone, Cat #: SH303396.03), 100 units/mL penicillin and 100 µg/mL streptomycin (Gibco, Cat #: 15140122). One day before compound treatment, H1-HeLa cells were seeded at […] into 96-well plates (Corning, Cat #3904) in Opti-MEM (Gibco, Cat #: 31985070) supplemented with 2% FBS, and were incubated at 37° C. in a 100% humid atmosphere containing 5% (v/v) CO2. After overnight incubation, the cells were treated with three-fold serial dilutions of the compound. At 96 hours post treatment, CellTiter-Glo reagents were added into each well and luminescence signals were recorded by an EnVision plate reader. The relative cell viability was calculated by normalizing the absorbance of the compound-treated groups to that of the DMSO-treated groups (set as 100% viability) and 10 μM puromycin treated groups (set as 0% viability). The CC50 (compound concentration for reducing 50% of cell viability) was calculated using a nonlinear regression model (four parameters).

Compound `CCCCCCCCCCCCCCCCCCC[C@H](COP(=O)(O)OC[C@@]1(C#N)O[C@@H](c2ccc3c(N)ncnn23)[C@H](O)[C@@H]1O)OCc1ccc(C#N)c(OC(C)C)c1` [Compound 28, ((2R,3S,4R,5S)-5-(4-aminopyrrolo[2,1-f][1,2,4]triazin-7-yl)-2-cyano-3,4-dihydroxytetrahydrofuran-2-yl)methyl ((R)-2-((4-cyano-3-isopropoxybenzyl)oxy)henicosyl) hydrogen phosphate] has an EC50 [1] of 625 nM, an EC50 [2] of 28 nM and a CC50 at 96 h (in vitro) of 9900 nM.
`CCCCCCCCCCCCCCCCC[C@H](COP(=O)(O)OC[C@@]1(C#N)O[C@@H](c2ccc3c(N)ncnn23)[C@H](O)[C@@H]1O)OCc1cc(F)cc(C#N)c1` [Compound 36, ((2R,3S,4R,5S)-5-(4-aminopyrrolo[2,1-f][1,2,4]triazin-7-yl)-2-cyano-3,4-dihydroxytetrahydrofuran-2-yl)methyl ((R)-2-((3-cyano-5-fluorobenzyl)oxy)nonadecyl) hydrogen phosphate] gave an EC50 [1] of 1100 nM, an EC50 [2] of 121 nM and a CC50 at 96 h (in vitro) of 9560 nM.
With `CCCCCCCCCCCCCCCCCCC[C@H](COP(=O)(O)OC[C@@]1(C#N)O[C@@H](c2ccc3c(N)ncnn23)[C@H](O)[C@@H]1O)Oc1ccc(C#N)c(OC(C)C)c1` [Compound 38, ((2R,3S,4R,5S)-5-(4-aminopyrrolo[2,1-f][1,2,4]triazin-7-yl)-2-cyano-3,4-dihydroxytetrahydrofuran-2-yl)methyl ((R)-2-(4-cyano-3-isopropoxyphenoxy)henicosyl) hydrogen phosphate] the EC50 [1] was 137 nM, the EC50 [2] was 23 nM and the CC50 at 96 h (in vitro) was 6190 nM.
Work on `CCCCCCCCCCCCCCCCCCOCC(COc1cc(F)cc(C#N)c1)COP(=O)(O)OC[C@@]1(C#N)O[C@@H](c2ccc3c(N)ncnn23)[C@H](O)[C@@H]1O` (stereo partly drawn) [Compound 43, ((2R,3S,4R,5S)-5-(4-aminopyrrolo[2,1-f][1,2,4]triazin-7-yl)-2-cyano-3,4-dihydroxytetrahydrofuran-2-yl)methyl (3-(3-cyano-5-fluorophenoxy)-2-((octadecyloxy)methyl)propyl) hydrogen phosphate] yielded an EC50 [1] of 901 nM, an EC50 [2] of 129 nM and a CC50 at 96 h (in vitro) of 4000 nM.
Work on `CCCCCCCCCCCCCCCCCCOC[C@H](COP(=O)(O)OC[C@@]1(C#N)O[C@@H](c2ccc3c(N)ncnn23)[C@H](O)[C@@H]1O)OCc1cccc(C#N)n1` [Compound 68, ((2R,3S,4R)-5-(4-aminopyrrolo[2,1-f][1,2,4]triazin-7-yl)-2-cyano-3,4-dihydroxytetrahydrofuran-2-yl)methyl ((R)-2-((6-cyanopyridin-2-yl)methoxy)-3-(octadecyloxy)propyl) hydrogen phosphate] yielded an EC50 [1] of 214 nM, an EC50 [2] of 36 nM and a CC50 at 96 h (in vitro) of 8710 nM.
